Measured values taken from patent US20240316088A1, “Solid composition suitable as a nutritional composition or supplement for animals that suffer from brain related disorders, decline or diseases” (N.V. Nutricia, priority 2022, published 2024).

Assay: Hygroscopicity as observed during formulation and processing
Format: physicochemical

Row | SMILES | hygroscopicity (in words)
1 | C[N+](C)(C)CCO.O=C([O-])C(O)C(O)C(=O)O (centres unmarked) [Choline bitartrate] | much reduced hygroscopicity
2 | C[N+](C)(C)CCO.[Cl-] [Choline chloride] | very hygroscopic
